Assays:
[1] = system: PANC-1 human pancreatic cancer cells; test: In vitro anti-proliferative effect, CCK-8 method, PANC-1; assay type: cell-based; settings: Homo sapiens, PANC-1
Method: (§1) The inhibitory activities of the compounds towards Hut78 T lymphocytic leukemia cells, Jurkat E6-1 human T-cell lymphoma, PANC-1 human pancreatic cancer cells, A549 human lung cancer cells, K562 human chronic myelogenous leukemia cells, Hep3B2.1-7 human liver cancer cells, MDA-MB-435s human breast cancer cells. Colo320 human colorectal cancer cell lines, and PC-3 human prostate cancer at two concentrations of 100 μM and 10 μM were determined. The inhibition percentages were obtained through CCK-8 method.

[2] = system: MDA-MB-435s human breast cancer cells; test: In vitro anti-proliferative effect, CCK-8 method, MDA-MB-435s; assay type: cell-based; settings: Homo sapiens, MDA-MB-435S
Method: as §1

[3] = system: A549 human lung cancer cells; test: In vitro anti-proliferative effect, CCK-8 method, A549; assay type: cell-based; settings: Homo sapiens, A549
Method: as §1

[4] = system: K562 human chronic myelogenous leukemia cells; test: In vitro anti-proliferative effect, CCK-8 method, K562; assay type: cell-based; settings: Homo sapiens, K562
Method: as §1

[5] = system: Hep3B2.1-7 human liver cancer cells; test: In vitro anti-proliferative effect, CCK-8 method, Hep3B; assay type: cell-based; settings: Homo sapiens, Hep3B cell strain, CCK-8 method; for inhibition at 10 µM: compound at 10 μM; for inhibition at 100 µM: compound at 100 μM
Method: as §1

[6] = system: PC-3 human prostate cancer; test: In vitro anti-proliferative effect, CCK-8 method, PC-3; assay type: cell-based; settings: Homo sapiens, PC-3 cell strain, CCK-8 method; for inhibition at 10 µM: compound at 10 μM; for inhibition at 100 µM: compound at 100 μM
Method: as §1

[7] = system: Hut78 T lymphocytic leukemia cells; test: In vitro anti-proliferative effect, CCK-8 method, Hut78; assay type: cell-based; settings: Homo sapiens, HuT78, read-out: Hut-78 (inhibition %)
Method: as §1

[8] = system: Colo320 human colorectal cancer cell lines; test: In vitro anti-proliferative effect, CCK-8 method, Colo320; assay type: cell-based; settings: Homo sapiens, COLO 320, Colo320 cell strain, CCK-8 method; for inhibition at 10 µM: compound at 10 μM; for inhibition at 100 µM: compound at 100 μM
Method: as §1

[9] = Maximum tolerance dose through intragastrical administration; assay type: in vivo; settings: mice, administrated intragastrically
Method: Forty ICR mice, half female and half male, weighing […] were divided into four groups, 10 mice in each group. After the mice were fasted for 6 h, the compound to be tested was administrated intragastrically to each group at a volume of 0.3 ml/10 g by using a sterile plastic syringe. General physical signs and the deaths of the animals were record at 1, 2 and 4 h after the administration. The animals were then observed continuously for 14 days and their weights, physical signs and deaths were observed and recorded every day. Dead animals were dissected to see if there was any visible pathological change in the animal's viscera and pathological examination was performed on suspicious tissues and organs. A part of the experimental results is as follows.

[10] = system: Jurkat E6-1 human T-cell lymphoma; test: In vitro anti-proliferative effect, CCK-8 method, Jurkat E6-1; assay type: cell-based; settings: Homo sapiens, Jurkat E6.1
Method: as §1

HDACs = test: In vitro inhibition of HDACs (HDAC Inhibitor Drug Screening Kit, Biovision K340-100); assay type: biochemical
Method: The in vitro inhibitory activities of the compounds towards HDACs were tested according to the instructions in the HDAC Inhibitor Drug Screening Kit (Biovision/Catalog #K340-100).
(1) The compounds to be tested were each individually prepared as 2 mM, 200 μM and 40 μM solutions and their inhibitory activities at these concentrations were tested.

HDAC1 = HDAC1 (Homo sapiens (Human), UniProt Q13547); test: In vitro inhibition of subtype HDAC1 (HDAC1 Inhibitor Drug Screening Kit, Biovision); assay type: biochemical
Method: The in vitro inhibitory activities of the compounds towards the subtype HDAC1 were tested according to the instructions in the HDAC1 Inhibitor Drug Screening Kit (Biovision).
(1) The compounds to be tested were each individually prepared as 10 μM and 1 μM solutions and their inhibitory activities at these concentrations were tested.
Each dilution sample was placed in two wells and the enzyme inhibition IC50 of the compound was tested.

HDAC1, sequence (Q13547 whole entry): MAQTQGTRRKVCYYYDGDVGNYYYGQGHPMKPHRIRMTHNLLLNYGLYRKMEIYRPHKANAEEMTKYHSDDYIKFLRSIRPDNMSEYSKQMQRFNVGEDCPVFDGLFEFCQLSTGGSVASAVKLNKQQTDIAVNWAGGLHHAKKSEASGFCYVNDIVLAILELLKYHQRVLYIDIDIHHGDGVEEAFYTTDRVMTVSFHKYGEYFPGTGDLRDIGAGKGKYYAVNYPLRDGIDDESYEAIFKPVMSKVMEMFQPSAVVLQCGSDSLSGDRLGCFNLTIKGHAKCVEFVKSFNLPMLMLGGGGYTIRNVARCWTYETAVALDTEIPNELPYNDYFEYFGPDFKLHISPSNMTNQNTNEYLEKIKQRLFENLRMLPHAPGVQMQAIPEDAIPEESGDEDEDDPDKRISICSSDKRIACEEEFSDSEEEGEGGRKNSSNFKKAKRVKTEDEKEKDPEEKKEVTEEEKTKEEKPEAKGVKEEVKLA

Structure (SMILES)	inhibition at 10 µM [1] [%]	inhibition at 100 µM [1] [%]	inhibition at 10 µM [2] [%]	inhibition at 100 µM [2] [%]	inhibition at 10 µM [3] [%]	inhibition at 100 µM [3] [%]	inhibition at 10 µM [4] [%]	inhibition at 100 µM [4] [%]	inhibition at 10 µM [5] [%]	inhibition at 100 µM [5] [%]	inhibition at 10 µM [6] [%]	inhibition at 100 µM [6] [%]	inhibition at 10 µM [7] [%]	inhibition at 100 µM [7] [%]	inhibition at 10 µM [8] [%]	inhibition at 100 µM [8] [%]	maximum tolerance dose [9]	inhibition at 10 µM [10] [%]	inhibition at 100 µM [10] [%]	Inhibition percentage (%) towards HDACs (HDACs; 40 μM) [%]	other results
CC(=O)Nc1ccc2ncnc(NCc3ccc(C(=O)Nc4ccncc4N)cc3)c2c1 [Compound V-47]	2.8	43	21.8	29.2	9.4	8	58	62.1	11.2	19.2	7.2	12.8	9.9	88.3	11	6	over 5000 mg/kg	59.4	76.6	–	–
COc1ccc2ncnc(Nc3ccc(C(=O)Nc4ccccc4N)cc3)c2c1 [Compound V-5, N-(2-aminophenyl)-4-(6-methoxyquinazoline-4-amino)benzamide]	10.5	45.9	-14.3	84.1	-44.3	-13.1	49.4	83.2	7.3	66.6	0	66.7	15	43.9	13	45.3	over 2000 mg/kg	62.2	87.9	2.8	IC50 (HDACs): 7.79 µM; Inhibition percentage (%) towards HDACs (HDACs; 200 μM): 16.8%; Inhibition percentage (%) towards HDACs (HDACs; 2 mM): 36.7%
Nc1cnccc1NC(=O)c1ccc(Nc2ncnc3ccccc23)cc1 [Compound V-2]	20.7	74.1	35.8	86.9	65.6	84.8	21	64.4	31.2	53.6	90.3	92.4	63.4	82.8	39.6	92.9	over 2000 mg/kg	58.5	85.9	17.6	Inhibition percentage (%) towards HDACs (HDACs; 200 μM): 28.0%; Inhibition percentage (%) towards HDACs (HDACs; 2 mM): 77.1%
COc1cc2ncnc(Nc3ccc(C(=O)Nc4ccncc4N)cc3)c2cc1OC [Compound V-4]	14.4	11.9	-20.7	-10.4	-43.9	-19.4	-1.3	38.1	-10.2	-12.1	5.2	15.9	66.4	95.8	7.1	16.8	over 5000 mg/kg	5.4	23.7	36.3	IC50 (HDACs): 3.29 µM; inhibitory activity according to in vitro IC50 value against HDACs compared with MS-275 (HDACs): better inhibitory activities than MS-275; Inhibition percentage (%) towards HDACs (HDACs; 200 μM): 70.3%; Inhibition percentage (%) towards HDACs (HDACs; 2 mM): 85.3%; inhibitory activity on HDACs compared with MS-275 (HDACs; concentrations of 2 mM, 200 μM, and 40 μM): significantly stronger inhibitory activities than MS-275
Nc1ccccc1NC(=O)c1ccc(CNc2ncnc3c(F)cccc23)cc1 [Compound V-43, N-(2-aminophenyl)-4-[(8-fluoroquinazoline-4-amino)methyl]benzamide]	3.1	35.9	18.8	86.4	41.2	85.5	13.8	60.8	21.2	58.8	81.4	89.4	75.7	89.6	19.1	59.4	over 5000 mg/kg	69.1	96.8	–	–
CC(=O)Nc1ccc2ncnc(NCc3ccc(C(=O)Nc4ccccc4N)cc3)c2c1 [Compound V-46, N-(2-aminophenyl)-4-[(6-acetamidoquinazoline-4-amino)methyl]benzamide]	8.1	70.4	16.4	4.1	7.7	4.1	27.3	18.9	17.5	-5	-1.7	-2.4	16.4	93.4	13.7	-9	over 2000 mg/kg	14.8	1.9	–	–
COc1cc2ncnc(Nc3ccc(C(=O)Nc4cc(-c5cccs5)ccc4N)cc3)c2cc1OC [Compound V-23, N-[2-amino-5-(2-thienyl)phenyl]-4-(6,7-dimethoxyquinazoline-4-amino)benzamide]	9.2	4	21.5	42.9	-7.4	6.2	12.8	61.2	1	28.1	7	40.2	59.9	93.1	7.3	5.9	–	4.7	52.7	17.5	IC50 (HDAC1): 0.178 µM; inhibition at 1 µM (HDAC1; 1 μM, read-out: % Inhibition towards HDAC1): 19.2%; inhibition at 10 µM (HDAC1; 10 μM, read-out: % Inhibition towards HDAC1): 55.8%; Inhibition percentage (%) towards HDACs (HDACs; 200 μM): 37.3%; Inhibition percentage (%) towards HDACs (HDACs; 2 mM): 40.7%

Source: patent US9034886B2, “4-aminoquinazoline derivatives and uses thereof” (Shanghai Institute of Pharmaceutical Industry, priority 2011, dated 2015)
